Results: US11246912B2, “Methods for treating and diagnosing metastatic liver cancer” (HADASIT MEDICAL RESEARCH SERVICES AND DEVELOPMENT LTD., priority 2017, dated 2022)
No end group written: not given here.

Columns and labels:
[1] = tested on: MC-38 colorectal liver metastases; assay: MC-38 colorectal liver metastases model (intra-splenic cell injection) with adropin injection; assay type: in vivo, mouse
Procedure: Metastases model—In order to obtain metastases in the liver, a well-documented model was employed using the cancer cell lines derived from C57B1/6 mice—MC-38 or EL-4 cells. The cancer cells were injected intra-splenic into MDR2-Knockout (KO) and C57B1/6 mice at two and five months of age, and after 5 minutes the spleen was removed to prevent the development of a primary tumor in the spleen. Fourteen days later, the mice were euthanized, and their livers were removed in a similar manner to that described above.
Adropin injection—The adropin peptide (corresponding to amino acids at positions 34-76) was purchased from ChinaPeptides Co., Ltd. with a purity of >95%. The peptide was injected to mice according to two protocols. For the first protocol, termed ‘short adropin treatment’, adropin was injected at 450 nmole/kg in saline (80 μl injected), i.p., twice daily, for the five days surrounding the MC-38 CRC cell injection. For the second protocol, termed ‘prolonged adropin treatment’, 450 nmole/kg of adropin was injected i.p. (100 μl injected) once every three days from the morning of MC-38 cell injection throughout the experiment until the mice were sacrificed fourteen days later (a total of five injections).
Formalin-fixed paraffin-embedded tissue slides were stained with hematoxylin-eosin (H&E) staining and analyzed under a microscope using Cellsens Entry software (Olympus, Japan). The number and size of metastases larger than 4,000 μm^2 were recorded. The number of metastases was normalized relatively to the size of the liver sample analyzed.
A synthetic peptide of adropin (34-76 aa, purity: >95%) was then used to validate the findings regarding adropin's role in protecting the liver from metastases. The peptide, or saline as control, was injected (450 nmol/kg/i.p.) to mice during the week of cancer cell injection (2 days before, day of tumor cell injection and the following two days). A significant decrease of over 2.5-fold in the metastases size was observed, in the adropin-injected mice (FIG. 4B).
A further protocol was employed where adropin was injected every 3 days throughout the entire experiment period (14 days), starting from the morning of the cancer cell injection.
The mice were injected every two days with adropin (0.01 or 0.05 mg/i.p. injection) or saline starting from the morning of the MC-38 cell injection until being sacrificed two weeks later.

[2] = tested on: MC-38 (colorectal cancer cell line); assay: XTT cell-proliferation test, MC-38 cells; assay type: cell-based, murine
Procedure: (§1) All cell lines were maintained in DMEM medium supplemented with 10% FCS, 1% Penicillin/Streptomycin and 1% L-Glutamine in 10 cm^2 plates in 5% humidified CO2 at 37° C. Twice a week cells were passaged. Detaching was done for MC-38, CT26 and normal cells by incubation with 1 ml trypsin for 2-3 min and then seeded (usually 1:10) in 10 ml DMEM supplemented medium which stopped the enzymatic process of trypsin. EL4 cells are grown in suspension, thus not requiring this stage. For the experiments, after the trypsin detachment, 1 ml of cells was transferred into 13 ml medium and then the cells were centrifuged (1,400 rpm, 10 min, room temperature (RT)) and resuspended in 1 ml of fresh medium (for in vitro experiments) or sterile PBS×l (for mouse injections in vivo). Cells were counted in a hemocytometer under a light microscope (magnification×10) immediately after the addition of Trypan blue solution (1:1 ratio). Non-stained cells were considered viable. For in-vivo mouse injections, the cells were diluted in sterile PBS xl to a final concentration of 5×10^4 for MC-38 cells or 5×10^5 for EL-4 cells per 100 μl. For XTT in vitro experiments, the cells were seeded in a 96-well plate (100 μl per well) in the morning and in the afternoon (once the cells adhered) the medium was changed according to the treatment (DMEM, Adropin 25 ng/ml, Adropin 50 ng/ml or Adropin 100 ng/ml). On the following day, the XTT reaction solution was added to the wells according to the cell proliferation kit (XTT based; Biological Industries, Israel) and the plate was read 2, 3 and 4 hours following, using a Magellan for Infinite F50 (Tecan, Switzerland) microplate reader at 450 nm.
To test adropin's direct effects on MC-38 cells, XTT cell-proliferation tests were performed with adropin added to the medium at different concentrations (25-100 ng/ml).

[3] = tested on: CT26 colorectal cancer cell line; assay: XTT metabolic assay, CT26 cells; assay type: cell-based; details: CT26 seeded 5×10^3 cells/well
Procedure: FIGS. 9A-9D are vertical bar graphs showing the inhibitory effect of adropin on colorectal cancer cells.
as §1, with “For in-vivo mouse injections, the cells were diluted in sterile PBS xl to a final concentration of 5×10^4 for MC-38 cells or 5×10^5 for EL-4 cells per 100 μl. For XTT in vitro experiments, the cells were seeded in a 96-well plate (100 μl per well) in the morning and in the afternoon (once the cells adhered) the medium was changed according to the treatment (DMEM, Adropin 25 ng/ml, Adropin 50 ng/ml or Adropin 100 ng/ml).” left out

MC38 cells = assay: Direct cell count, MC38 cells; assay type: cell-based, murine; details: all tested seeding concentrations, up to 5×10^4 cells/well; compared with XTT
Procedure: as §1, with “For in-vivo mouse injections, the cells were diluted in sterile PBS xl to a final concentration of 5×10^4 for MC-38 cells or 5×10^5 for EL-4 cells per 100 μl. For XTT in vitro experiments, the cells were seeded in a 96-well plate (100 μl per well) in the morning and in the afternoon (once the cells adhered) the medium was changed according to the treatment (DMEM, Adropin 25 ng/ml, Adropin 50 ng/ml or Adropin 100 ng/ml).” left out, “nm. […]” for “nm.”

CT26 cells = assay: Direct cell count, CT26 cells; assay type: cell-based
[4] = tested on: normal fibroblasts (HF cells); assay: XTT assay on normal fibroblasts; assay type: cell-based; details: 1×10^4 HF cells/well
Procedure: (§2) FIGS. 10A-10C are vertical bar graphs showing the specificity of adropin inhibition on proliferating cancer cells. No detectable effect of adropin treatment was observed (using XTT assay) on normal (A) fibroblasts (1×10^4 HF cells/well), (B) kidney cells (5×10^4 cells/well), and (C) hepatocytes (5×10^4 HepRG cells/well) in-vitro.
(§3) All cell lines were maintained in DMEM medium supplemented with 10% FCS, 1% Penicillin/Streptomycin and 1% L-Glutamine in 10 cm^2 plates in 5% humidified CO2 at 37° C. Twice a week cells were passaged. Detaching was done for MC-38, CT26 and normal cells by incubation with 1 ml trypsin for 2-3 min and then seeded (usually 1:10) in 10 ml DMEM supplemented medium which stopped the enzymatic process of trypsin. EL4 cells are grown in suspension, thus not requiring this stage. […] Cells were counted in a hemocytometer under a light microscope (magnification×10) immediately after the addition of Trypan blue solution (1:1 ratio). […] On the following day, the XTT reaction solution was added to the wells according to the cell proliferation kit (XTT based; Biological Industries, Israel) and the plate was read 2, 3 and 4 hours following, using a Magellan for Infinite F50 (Tecan, Switzerland) microplate reader at 450 nm. […]

normal kidney cells = assay: XTT assay on normal kidney cells; assay type: cell-based; details: kidney cells 5×10^4 cells/well
Procedure: as §2, §3

[5] = tested on: hepatocytes (HepRG cells); assay: XTT assay on normal hepatocytes; assay type: cell-based; details: 5×10^4 HepRG cells/well
Procedure: as §2, §3

[6] = Adropin stability under storage conditions by LC-MS; assay type: physicochemical
From the text: The inventors then examined the stability of adropin in vitro. For that, the inventors had set up a liquid chromatography mass spectrometry (LC-MS) assay and used it to examine the stability of adropin under different storage conditions (see Table 1). […] Contrary, approximately 50% degradation were observed when the dissolved peptide was stored at a room temperature for one month.

[7] = Adropin stability during incubation with mouse serum (LC-MS); assay type: in vitro ADME; details: 24 hours incubation with mouse serum; read-out: adropin level remaining
Procedure: FIG. 11 is a graph showing adropin dynamic stability during incubation with mouse serum as measured with liquid chromatography mass spectrometry (LC-MS).
The next step was to assess the stability of adropin during incubation with human or mouse serum.

hepatic adropin RNA = assay: Hepatic adropin RNA levels after adropin injection (qRT-PCR); assay type: in vivo, mouse
Procedure: FIG. 14 is a vertical bar graph showing the dose effects of a single adropin administration (i.p.) at the indicated doses (0 (naïve), 0.01 mg, 0.05 mg and 0.001 mg) on hepatic adropin RNA levels (measured by qRT-PCR). Each group comprised 4 mice.
FIG. 15 is a vertical bar graph showing the efficacy of different adropin routes of administration on hepatic adropin RNA in naïve mice (measured by qRT-PCR). Adropin was injected at a dose 0.01 mg. Naïve, non-injected; IP, intraperitoneal injection; SC, subcutaneous injection; IV, intravenous injection.
(§4) C57BL/6 mice were given a single injection of adropin at different concentrations and sacrificed at varied times afterward. […] The lower concentration induced higher effect.
The inventors then pursued optimization of adropin administration. With this respect, different doses of adropin were administered to mice and hepatic adropin RNA levels were quantified (FIG. 14). […] Reduction in the dose of the administered adropin led to a reduction in the administered adropin effect.
Further, the inventors examined whether the administration route of the adropin affects the hepatic adropin mRNA levels (FIG. 15).

hepatic adropin protein = assay: Hepatic adropin protein levels after single adropin injection; assay type: in vivo, mouse; details: C57BL/6 mice, single i.p. injection, different doses; lasting for two days
Procedure: FIGS. 12A-12B are vertical bar graphs showing the effect of single adropin polypeptide injection on endogenous hepatic adropin RNA (A) and (B) protein levels at the indicated doses and timing following i.p. injection (n represents number of mice per group).
Adropin levels were determined using the ELISA Kit (Cloud-Clone Corp., Texas, USA) for liver or serum mice samples according to the manufacturer's protocol. The results were analyzed using Magellan for Infinite F50 (Tecan, Switzerland).
as §4

[8] = adropin 450 nmol/kg i.p., short treatment, vs saline
[9] = adropin 0.01 or 0.05 mg/i.p. injection every two days for two weeks, C57BL/6 mice
[10] = prolonged adropin treatment, 450 nmol/kg i.p. every 3 days for 14 days

CHSRSADVDSLSESSPNSSPGPCPEKAPPPQKPSHEGSYLLQP (cysteines drawn unpaired) [adropin]
BrdU levels in the hepatic parenchyma [1, 8]: no differences
number of BrdU stained cells in the tumors [1, 8]: decrease in the number of BrdU stained cells
number of hepatic metastases [1, 9]: significantly improved effects
size of hepatic metastases [1, 9]: significantly improved effects
number of liver metastases [1, 10]: reduced upon adropin injections (marginally significant)
size of liver metastases [1, 10]: reduced upon adropin injections (marginally significant)
decrease in the metastases size ([1]; short adropin treatment, 450 nmol/kg i.p., 2 days before, day of and two days after MC-38 cell injection, vs saline): over 2.5 fold
inhibition of proliferation (XTT metabolic assay, FIG. 9A) ([2]; MC38 seeded 5×10^3 cells/well): significant inhibition
reduction in cell number (XTT) ([2]; adropin 100 ng/ml, seeded 1×10^3 cells/well): significant reduction in cell number
reduction in cell number (XTT) ([2]; adropin 100 ng/ml, seeded 5×10^3 cells/well): significant reduction in cell number
proliferation levels (XTT) ([2]; adropin 25-100 ng/ml in medium): decrease in the proliferation levels of the colorectal cancer cells in a dose dependent manner
reduction in cell number (XTT) ([2]; adropin 25 or 100 ng/ml, seeded 5×10^4 cells/well): No significant reduction
inhibition of proliferation (XTT metabolic assay, FIG. 9C) [3]: significant inhibition
inhibitory effect on the number of cells (direct cell count) (MC38 cells): even higher inhibitory effect
inhibition by direct cell counts (CT26 cells): same trends of inhibition
effect of adropin treatment on normal cells (XTT) [4]: No detectable effects
effect of adropin treatment on normal cells (XTT) (normal kidney cells): No detectable effects
effect of adropin treatment on normal cells (XTT) [5]: No detectable effects
Concentration obtained by LC-MS ([6]; 4° C. for 1 month): 84 ng/mL
Concentration obtained by LC-MS ([6]; Freeze/Thaw cycle × 3 (−20° C. to RT once a week)): 92 ng/mL
Concentration obtained by LC-MS ([6]; Room temperature (RT) for 1 month): 55 ng/mL
degradation of dissolved peptide ([6]; room temperature for one month): approximately 50%
Concentration obtained by LC-MS ([6]; −20° C. for 1 month): 95 ng/mL
stability dissolved in saline ([6]; −20° C. or −80° C., up to one month): highly stable
Concentration obtained by LC-MS ([6]; −80° C. and then 4° C. for 1 week): 99 ng/mL
Concentration obtained by LC-MS ([6]; −80° C. and then RT for 1 week): 94 ng/mL
Concentration obtained by LC-MS ([6]; −80° C. and then −20° C. for 1 week): 100 ng/mL
Concentration obtained by LC-MS ([6]; −80° C. for 1 month): 95 ng/mL
remaining at 24 h [7]: 55%
hepatic adropin RNA levels (hepatic adropin RNA; C57BL/6 mice, single i.p. injection, different doses, lasting for two days): large increase
hepatic adropin mRNA levels (hepatic adropin RNA; intraperitoneal injection, 0.01 mg, naïve mice): greatest increase
hepatic adropin mRNA levels (hepatic adropin RNA; intravenous injection, 0.01 mg, naïve mice): substantial increase
hepatic adropin mRNA levels (hepatic adropin RNA; single i.p. dose of 0.001 mg): did not induce such an effect
hepatic adropin mRNA levels (hepatic adropin RNA; single i.p. dose of 0.005 mg): some increase
hepatic adropin mRNA levels (hepatic adropin RNA; single i.p. dose of 0.01 mg): substantially increase
hepatic adropin mRNA levels (hepatic adropin RNA; subcutaneous injection, 0.01 mg, naïve mice): did not seem to increase
hepatic adropin protein levels (hepatic adropin protein): large increase
